{"source": "patent US11826357B2", "about": "“Bacterial efflux pump inhibitors” (RUTGERS, THE STATE UNIVERSITY OF NEW JERSEY, priority 2017, dated 2023)", "key": {"[1]": {"test_system": "Pseudomonas aeruginosa ATCC 27853", "test": "Standard bacterial EPI assay: MIC of levofloxacin in the absence and presence of the EPI", "type": "cell-based", "details": "P. aeruginosa ATCC 27853", "description": "(§1) MIC assays were conducted in accordance with Clinical and Laboratory Standards Institute (CLSI) guidelines for broth microdilution. A 96-well plate containing cation-adjusted Mueller-Hinton (CAMH broth with 2-fold serial dilution of compounds was inoculated with log-phase bacterial at 5×10^5 CFU/mL. The final volume in each well was 100 μL. Each compound was tested in duplicate. The microtiter plates were incubated in an aerobic environment for 18 hours at 37° C. Then the bacterial growth was tested by reading the plate with a VersaMax plate reader (Molecular Devices, Inc.) at 600 nm. The MIC was defined as the lowest compound concentration that inhibited 90% of bacteria growth.\nThe EPI assay for the purposes of these studies represents a MIC assay in which the MIC of the antibiotic against the bacteria is tested in the presence of an experimental efflux pump inhibitor (EPI). […] Using serial dilutions of the EPI, its enhancement of antibiotic activity was then evaluated. […]\nThe impact of Example 2 on the MIC values of two test antibiotics (levofloxacin and cefepime) against P. aeruginosa ATCC 27853 were evaluated using our standard EPI assay. […]\nIn our standard EPI assay, the MIC of the test antibiotic is determined in the absence and presence of sub-inhibitory concentrations of the EPI. […]"}, "P. aeruginosa ATCC 27853": {"test_system": "P. aeruginosa ATCC 27853", "test": "Intrinsic MIC assay (CLSI broth microdilution)", "type": "cell-based", "details": "Pseudomonas aeruginosa, ATCC27853, compound alone", "description": "as §1\nThe intrinsic MIC of the experimental EPIs was tested with the method described. The 2-fold serial dilution begins with 100 μg/mL of tested compound in the first column of the 96-well plates. The following Gram-negative bacterial strains were included in these assays: […]"}}, "note": "Structures can show the parent of a compound that is named as a salt."}
{"compound": "NCCC[C@H](N)CNC(=O)c1[nH]c2cc(-c3ccc(F)cc3)ccc2c1C1CC1", "note": "[Example 2, (S)-3-cyclopropyl-N-(2,5-diaminopentyl)-6-(4-fluorophenyl)-1H-indole-2-carboxamide dihydrochloride]", "values": [{"measurement": "MIC of levofloxacin in the presence of the EPI", "setting": "[1]; 6.25 μg/mL (½×MIC) of the EPI", "value": 0.032, "unit": "µg/mL"}, {"measurement": "fold reduction of the MIC of levofloxacin relative to the absence of EPI", "setting": "[1]; 6.25 μg/mL of the EPI", "value": 32, "unit": "fold"}, {"measurement": "MIC", "setting": "P. aeruginosa ATCC 27853", "value": 12.5, "unit": "µg/mL"}]}
